Experimental data reported in the NIST ThermoML archive (doi:10.1021/je201277d).

How the values were obtained:
[1] = refractive index (other wavelength) (dimensionless); conditions: 298.15 K, 101.3 kPa, Liquid
[2] = refractive index (other wavelength) (dimensionless); wn = mass fraction of the nth substance listed; conditions: 298.15 K, 101.3 kPa, Liquid

CO [methanol]
[1]
Conditions | refractive index
Wavelength=670 nm | 1.32603
Wavelength=925 nm | 1.32235

Cc1ccccc1 [toluene] + CO
refractive index, [2]
Conditions | w1 = 0.1001 | w1 = 0.1994 | w1 = 0.3001 | w1 = 0.4 | w1 = 0.4996 | w1 = 0.6 | w1 = 0.6994 | w1 = 0.8001 | w1 = 0.8994
Wavelength=670 nm | 1.34089 | 1.35612 | 1.37219 | 1.38826 | 1.4056 | 1.42196 | 1.43865 | 1.45699 | 1.47418
Wavelength=925 nm | 1.33686 | 1.35152 | 1.36718 | 1.38279 | 1.39956 | 1.41564 | 1.43182 | 1.44951 | 1.46633

C1CCCCC1 [cyclohexane] + Cc1ccccc1
refractive index, [2]
Conditions | w1 = 0.0996 | w1 = 0.2002 | w1 = 0.2995 | w1 = 0.4003 | w1 = 0.5004 | w1 = 0.6002 | w1 = 0.7 | w1 = 0.8005 | w1 = 0.9001
Wavelength=670 nm | 1.48158 | 1.47363 | 1.46616 | 1.45883 | 1.45162 | 1.44527 | 1.43903 | 1.43327 | 1.42768
Wavelength=925 nm | 1.47383 | 1.46618 | 1.4592 | 1.45229 | 1.44539 | 1.43956 | 1.43363 | 1.42825 | 1.42296

C1CCCCC1 [cyclohexane]
[1]
Conditions | refractive index
Wavelength=670 nm | 1.42253
Wavelength=925 nm | 1.41832

C1CCCCC1 [cyclohexane] + CO
refractive index, [2]
Conditions | w1 = 0.1 | w1 = 0.2004 | w1 = 0.2999
Wavelength=670 nm | 1.33196 | 1.34128 | 1.34987
Wavelength=925 nm | 1.32811 | 1.33737 | 1.34602

Cc1ccccc1 [toluene]
[1]
Conditions | refractive index
Wavelength=670 nm | 1.48998
Wavelength=925 nm | 1.48176
